Results: patent US20240116926A1, “HETEROAROMATIC COMPOUNDS” (AstraZeneca AB, priority 2022, published 2024)
pIC50: −log10 of the molar value. Converted amounts (≈) assume the structure as drawn.

Assays:
TEAD4(217-434) = TEAD4(217-434) (Homo sapiens (Human), UniProt Q15561); test: TEAD4 FRET; format: binding; conditions: depalmitoylated, biotinylated TEAD4(217-434), FAM labelled Probe A, 120 min at 25° C.
Procedure: Compounds were dosed with a final DMSO concentration of 1% (v/v). Compound IC50 values were assessed following a 10-point, half-log10 dilution schema starting at 100 μM compound concentration. Specifically, human TEAD protein from TEAD4(217-434) was cloned into an overexpression vector, expressed as an N-terminal HIS-TEV-Avi-tagged fusion protein in E coli, and subsequently purified, then protein was chemically depalmitoylated & biotinylated. The assay was performed in 384-well LV plates (384-well black, medium binding, PS, HIBASE, GREINER #784076) and run in the presence and absence of the compound of interest. Each well of 5 μL assay mixture contained 10 mM Tris-HCl (pH 7.5), 100 mM NaCl, 0.05 mM EDTA, 1 mM TECP, 1% DMSO, 0.03% Pluronic acid F127, 20 nM dePal Avi TEAD4 (217-434)-depalmitoylated & biotinylated protein, 0.8 nM Streptavidin Terbium cryptate (CisBio #610SATLB), 625 nM FAM labelled Probe A. Reactions were incubated at 25° C. for 120 min before reading on a PHERASTAR FSX Plate Reader (337 520 490 HTRF module required) (Supplier BMP).
The data file from the PHERAstar FSX contains both the acceptor (520 nm) and donor channels (490 nm) (“Channel A”=acceptor channel (520 nm), “Channel B”=donor channel (490 nm)). The ratio of the donor and acceptor (Channel A/Channel B) is calculated within Genedata Assay Analyzer.
Probe A is 3′,6′-dihydroxy-3-oxo-N-{8-[2-(5-{2-[4-(trifluoromethyl)anilino]phenyl}-2H-tetrazol-2-yl)acetamido]octyl}-3H-spiro[[2]benzofuran-1,9′-xanthene]-5-carboxamide;

MCF7-Tead cell line = test: TEAD reporter assay; format: cell-based; conditions: MCF7-Tead cells, luciferase activity after 24 hours
Procedure: (§1) MCF7-Tead cell line was obtained from BPS BIOSCIENCE (catalog number 60618) and was maintained in DMEM containing 10% fetal calf serum, 2 mM glutamine, and 400 μg/ml G418. Cells were grown in a humidified incubator at 37° C. with 5% CO2. Cells were distributed to flat bottom white polystyrene TC treated 384 well plates at a density of 3,500 cells/well in 30 uL. Cells were incubated for 24 hours at 37° C. with 5% CO2. Cells were acoustically dosed using an Echo 555, with compounds serially diluted in 100% DMSO. Plates were incubated for an additional 24 hours. Cells were examined for luciferase activity through the addition of 30 μL Bright-Glo luciferase (Promega catalog number E2620). Plates were incubated for 10 minutes at room temperature and luminescence was read using Tecan plate reader. The data obtained with each compound was exported to […] software to perform curve fitting analysis.

[1] = system: MCF7-Luciferase cell line; test: Control reporter (MCF7-Luciferase); format: cell-based; conditions: MCF7-Luciferase cells, luciferase activity after 24 hours
Procedure: (iii) Control Reporter (MCF7-Luciferase)
as §1, with “MCF7-Luciferase” for “MCF7-Tead”, “BPS BIOSCIENCE” left out, “SC050-L)” for “60618)”, “glutamine.” for “glutamine, and 400 μg/ml G418.”, “μL.” for “uL.”

[2] = Solubility (thermodynamic, shake-flask); format: physicochemical; conditions: thermodynamic from solid; aqueous phosphate buffer (pH 7.4), 24 hours at 25° C.
Procedure: The thermodynamic solubility of a research compound is measured under standard conditions. It is a shake-flask approach that uses 10 mM DMSO solutions which are supplied from the Compound Managements liquid store and is a high throughput method. The dried compounds are equilibrated in an aqueous phosphate buffer (pH 7.4) for 24 hours at 25° C., the portion with the dissolved compound is then separated from the remains. The solutions are analyzed and quantified using UPLC/MS/MS, QC-samples are incorporated in each assay-run to ensure the quality of the assay.

[3] = Protein binding measurements in human plasma (Hu PPB); format: in vitro ADME; conditions: equilibrium dialysis for 18 hours, fraction unbound
Procedure: The automated equilibrium dialysis assay in human plasma uses the RED (Rapid Equilibrium Dialysis) Device and sample handling. The assay generally runs over two to three days including delivery of results. After dialysis for 18 hours, plasma and buffer samples are prepared for analysis by liquid chromatography and mass spectrometry. Samples are generally tested in singlicates and quantified by LC/MSMS by using a 7-point calibration curve in plasma. The compounds are pooled together in plasma pools up to 10 compounds. Three reference compounds are used in each run, Propranolol, Metoprolol and Warfarin. Warfarin is used as a control in each pool and Propranolol and Metoprolol are placed randomly in each run. An in-house Excel macro is used for preparation of files for the robot and the mass spectrometer and is also used for the calculations of fraction unbound (fu %) in plasma.

Sequence of TEAD4(217-434) (Q15561 217-434): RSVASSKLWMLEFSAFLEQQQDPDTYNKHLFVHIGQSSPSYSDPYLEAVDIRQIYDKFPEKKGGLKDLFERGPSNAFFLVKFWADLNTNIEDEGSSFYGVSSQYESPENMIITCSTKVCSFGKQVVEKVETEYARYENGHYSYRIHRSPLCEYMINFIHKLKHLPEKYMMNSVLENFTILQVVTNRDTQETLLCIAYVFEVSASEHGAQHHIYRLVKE

| Structure (SMILES) | pIC50 (TEAD4(217-434)) | pIC50 (MCF7-Tead cell line) | pIC50 [1] | solubility at 24 h [2] [µM] | Hu PPB (% free) [3] [% free] |
| --- | --- | --- | --- | --- | --- |
| C=CC(=O)N[C@H]1CCN(c2nc(-c3ccc(C(F)(F)F)cc3)nc3ccccc23)C1 (racemic) [Comparative Example D, N-(1-{2-[4-(trifluoromethyl)phenyl]-4-quinazolinyl}-3-pyrrolidinyl)acrylamide, reference compound] | 5.54 | 5.75 | < 4.50 | 0.6 (≈ 0.247 µg/mL) | 0.2 |
| C=CC(=O)N1CC[C@H](Nc2nnc(-c3ccc(C(F)(F)F)cn3)c3cccnc23)C1 [Example 16, (S)-1-(3-((5-(5-(trifluoromethyl)pyridin-2-yl)pyrido[2,3-d]pyridazin-8-yl)amino)pyrrolidin-1-yl)prop-2-en-1-one] | 6.57 | 6.45 | < 4.50 | 114 (≈ 47.2 µg/mL) | 25.0 |
| C=CC(=O)N1C[C@@H](CO)[C@H](Nc2ncc(-c3ccc(C(F)(F)F)cn3)c3ncccc23)C1 [Example 37, 1-((3R,4S)-3-(hydroxymethyl)-4-((8-(5-(trifluoromethyl)pyridin-2-yl)-1,6-naphthyridin-5-yl)amino)pyrrolidin-1-yl)prop-2-en-1-one] | 6.74 | 7.48 | < 4.50 | 155 (≈ 68.7 µg/mL) | 17.0 |
| C=CC(=O)N1C[C@@H](CO)[C@H](Nc2nnc(-c3ccc(C(F)(F)F)cc3)c3cccc(F)c23)C1 [Example 15, 1-((3S,4R)-3-((8-fluoro-4-(4-(trifluoromethyl)phenyl)phthalazin-1-yl)amino)-4-(hydroxymethyl)pyrrolidin-1-yl)prop-2-en-1-one] | 7.60 | 7.82 | 4.51 | 135 (≈ 62.2 µg/mL) | 11.0 |
| C=CC(=O)N1C[C@H](O)[C@H](Nc2nnc(-c3ccc(C(F)(F)F)cc3)c3cccnc23)C1 [Example 33, 1-((3S,4R)-3-hydroxy-4-((5-(4-(trifluoromethyl)phenyl)pyrido[2,3-d]pyridazin-8-yl)amino)pyrrolidin-1-yl)prop-2-en-1-one] | 7.17 | 6.97 | < 4.50 | 365 (≈ 157 µg/mL) | 17.0 |
| C=CC(=O)N1CC[C@H](Nc2ncc(-c3ccc(C(F)(F)F)cc3)c3ncccc23)C1 [Example 39, (S)-1-(3-((8-(4-(trifluoromethyl)phenyl)-1,6-naphthyridin-5-yl)amino)pyrrolidin-1-yl)prop-2-en-1-one] | 7.89 | 8.30 | < 4.50 | 20 (≈ 8.25 µg/mL) | 1.4 |
| C=CC(=O)N1C[C@@H](Nc2nnc(-c3ccc(C(F)(F)F)cc3)c3ccccc23)C[C@H]1CO [Example 48, 1-((2S,4S)-2-(hydroxymethyl)-4-((4-(4-(trifluoromethyl)phenyl)phthalazin-1-yl)amino)pyrrolidin-1-yl)prop-2-en-1-one] | 7.59 | 7.59 | 4.79 | 2.4 (≈ 1.06 µg/mL) | 5.9 |
| C=CC(=O)N1C[C@@H](CO)[C@H](Nc2nnc(-c3ccc(C(F)(F)F)cc3)c3cccnc23)C1 [Example 26, 1-((3R,4S)-3-(hydroxymethyl)-4-((5-(4-(trifluoromethyl)phenyl)pyrido[2,3-d]pyridazin-8-yl)amino)pyrrolidin-1-yl)prop-2-en-1-one] | 7.12 | 7.38 | < 4.50 | 175 (≈ 77.6 µg/mL) | 26.0 |
| C=CC(=O)N1CCC[C@H](Nc2nnc(-c3ccc(C(F)(F)F)cc3)c3ccccc23)C1 [Example 50, (S)-1-(3-((4-(4-(trifluoromethyl)phenyl)phthalazin-1-yl)amino)piperidin-1-yl)prop-2-en-1-one] | 7.52 | 6.73 | 4.54 | < 1.6 | 5.4 |
| C=CC(=O)N1CC[C@@H](c2nc(-c3ccc(C(F)(F)F)cc3)c3ccccc3n2)C1 (racemic) [Comparative Example C, 1-(3-{4-[4-(trifluoromethyl)phenyl]-2-quinazolinyl}-1-pyrrolidinyl)-2-propen-1-one, reference compound] | 7.26 | 6.59 | 4.64 | 66 (≈ 26.2 µg/mL) | 1.1 |
| C=CC(=O)N1C[C@@H](CO)[C@H](Nc2nnc(-c3ccc(C(F)(F)F)cc3)c3ccccc23)C1 [Example 23, 1-((3R,4S)-3-(hydroxymethyl)-4-((4-(4-(trifluoromethyl)phenyl)phthalazin-1-yl)amino)pyrrolidin-1-yl)prop-2-en-1-one] | 7.38 | 7.85 | < 4.50 | 48 (≈ 21.2 µg/mL) | 4.7 |
| C=CC(=O)N1CC[C@H](Nc2nnc(-c3ccc(C(F)(F)F)cc3)c3cccnc23)C1 [Example 8, (S)-1-(3-((5-(4-(trifluoromethyl)phenyl)pyrido[2,3-d]pyridazin-8-yl)amino)pyrrolidin-1-yl)prop-2-en-1-one] | 7.25 | 7.14 | < 4.50 | 32 (≈ 13.2 µg/mL) | 12.0 |
| C=CC(=O)N1C[C@@H](COC)[C@H](Nc2nnc(-c3ccc(C(F)(F)F)cc3)c3ccccc23)C1 [Example 28, 1-((3R,4S)-3-(methoxymethyl)-4-((4-(4-(trifluoromethyl)phenyl)phthalazin-1-yl)amino)pyrrolidin-1-yl)prop-2-en-1-one] | 7.21 | 7.15 | < 4.50 | 168 (≈ 76.7 µg/mL) | 3.9 |
| C=CC(=O)N1CC[C@H](Nc2nnc(-c3ccc(C(F)(F)F)cc3)c3cccc(F)c23)C1 [Example 13, (S)-1-(3-((8-fluoro-4-(4-(trifluoromethyl)phenyl)phthalazin-1-yl)amino)pyrrolidin-1-yl)prop-2-en-1-one] | 7.39 | 7.52 | < 4.50 | 40 (≈ 17.2 µg/mL) | 6.1 |
| C=CC(=O)N1CC[C@H](Nc2ncc(-c3ccc(C(F)(F)F)cc3)c3nccnc23)C1 [Example 45, (S)-1-(3-((8-(4-(trifluoromethyl)phenyl)pyrido[3,4-b]pyrazin-5-yl)amino)pyrrolidin-1-yl)prop-2-en-1-one] | 7.92 | 7.96 | 4.72 | 13.6 (≈ 5.62 µg/mL) | 3.9 |
